Data: patent US8192962B2, “Processes for detecting toxic substances” (Daikin Industries, Ltd., priority 2001, dated 2012)

System: Transport facilitation protein genes
Assay: DNA chip mRNA expression in yeast, transport facilitation protein genes (Table 5)
Format: cell-based, Saccharomyces cerevisiae S288C
Outline: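 Expression change after 2 h toxicant exposure (growth-inhibiting, sub-lethal) of log-phase S. cerevisiae S288C at 25° C. Oligo-dT-purified mRNA was labeled with Cy3-dUTP or Cy5-dUTP and hybridized >12 h at 65° C. to a genome-wide chip; ratio of scanned fluorescence to control.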

Measured: The level of expressed mRNA in the presence of chemical substance/The level of expressed mRNA in the absence of chemical substance

Na2As [(1)]
2.6: yeast gene YOL119C
2.2: yeast gene YPR194C
2.3: yeast gene YHR092C
0.5: yeast gene YPL036W
0.9: yeast gene YGR224W | yeast gene YHR026W | yeast gene YIL088C | yeast gene YJR106W | yeast gene YJR121W | yeast gene YPR192W
0.6: yeast gene YGR260W | yeast gene YHL047C | yeast gene YLL028W
1.6: yeast gene YHL040C | yeast gene YOR153W
1.0: yeast gene YIL006W | yeast gene YOR328W
1.4: yeast gene YKR039W | yeast gene YLR295C
1.1: yeast gene YIL056W | yeast gene YJR077C | yeast gene YLR348C | yeast gene YNL055C | yeast gene YNR072W | yeast gene YOL156W | yeast gene YOR332W | yeast gene YOR348C
1.5: yeast gene YKL016C | yeast gene YOL163W | yeast gene YPL134C
1.2: yeast gene YGR281W | yeast gene YJL219W | yeast gene YOR035C | yeast gene YPL271W
1.3: yeast gene YLR081W | yeast gene YMR011W
0.7: yeast gene YHL035C | yeast gene YHR094C | yeast gene YJL034W | yeast gene YLR378C | yeast gene YOR273C | yeast gene YOR316C
0.8: yeast gene YHR175W | yeast gene YIL022W | yeast gene YJL212C | yeast gene YKL146W | yeast gene YKR067W | yeast gene YMR162C | yeast gene YMR203W | yeast gene YOR130C
